In patent US20150011566A1, “N-PHENYLPIPERAZINE DERIVATIVES THAT ARE ANTAGONISTS OF A1A, A1D ADRENOCEPTORS AND 5-HT1A RECEPTORS FOR THE TREATMENT OF BENIGN PROSTATE HYPERPLASIA, PHARMACEUTICAL COMPOSITIONS CONTAINING THE SAME” (UNIVERSIDADE FEDERAL DO RIO DE JANEIRO-UFRJ, priority 2012, published 2015):
Where two headings read alike, the source gives them in different places.

How the values were obtained:
[1] = molecular target: T1, α1B adrenoceptors (Rattus norvegicus, UniProt P15823); assay: Binding of [3H]-prazosin to α1B adrenoceptors (rat liver membranes)
T1 construct: from tissue; host or cells: rat liver membranes
T1 sequence (P15823 1-515): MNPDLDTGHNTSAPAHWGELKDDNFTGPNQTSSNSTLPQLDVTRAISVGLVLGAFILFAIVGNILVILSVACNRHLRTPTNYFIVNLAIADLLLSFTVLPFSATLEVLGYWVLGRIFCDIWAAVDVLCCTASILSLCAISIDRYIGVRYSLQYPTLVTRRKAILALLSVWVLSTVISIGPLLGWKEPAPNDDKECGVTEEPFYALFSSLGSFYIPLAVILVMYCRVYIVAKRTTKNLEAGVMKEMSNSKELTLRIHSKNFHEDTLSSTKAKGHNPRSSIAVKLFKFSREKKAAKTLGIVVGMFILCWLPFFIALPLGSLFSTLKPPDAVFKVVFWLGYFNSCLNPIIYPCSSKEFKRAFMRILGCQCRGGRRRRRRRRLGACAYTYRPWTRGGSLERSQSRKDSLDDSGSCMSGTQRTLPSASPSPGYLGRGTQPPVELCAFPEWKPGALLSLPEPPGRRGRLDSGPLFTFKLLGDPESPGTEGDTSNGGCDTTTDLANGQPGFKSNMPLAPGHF
Experimental: Following the protocol described previously in the literature membrane preparations from rat liver homogenates were obtained. Such membrane preparations are enriched in the adrenoceptor subtype α1B. The tissues obtained as described above (4 Rat livers corresponding to ˜30 g) were thawed and homogenized perforated similarly performed for rabbit liver. The homogenate obtained was filtered through four layers of gauze and then subjected to centrifugation 5,000×g for 20 minutes at 4° C., yielding a supernatant which was subsequently ultracentrifuged at 100,000×g for 60 minutes at 4° C., obtaining a pellet. This pellet was resuspended in buffer free of NaCl and subjected to a further […] under the same conditions.
Binding assays were standardized for α1B adrenoceptors in the same way adrenoceptor binding assays for α1A according to the literature, i.e. saturation and competition assays were performed on membrane preparations from rat liver, in this case using […] protein per tube contained […] suspension, in addition to various concentrations of LDT's (10^−9-10^−6 M).

[2] = molecular target: T2, α1D adrenoceptors (Rattus norvegicus, UniProt P23944); assay: Phenylephrine-induced contraction inhibition in rat aorta (isometric contraction, Schild KB); assay type: cell-based; parameters: CR: concentration ratio CR = EC′50/EC50 (with/without antagonist); settings: for log KB ± EPM (M) / Kb: Schild equation
T2 construct: the rat thoracic aorta corresponds to a tissue expressing mainly α1D-adrenoceptors; from tissue; host or cells: rat thoracic aorta rings
T2 sequence (P23944 1-561): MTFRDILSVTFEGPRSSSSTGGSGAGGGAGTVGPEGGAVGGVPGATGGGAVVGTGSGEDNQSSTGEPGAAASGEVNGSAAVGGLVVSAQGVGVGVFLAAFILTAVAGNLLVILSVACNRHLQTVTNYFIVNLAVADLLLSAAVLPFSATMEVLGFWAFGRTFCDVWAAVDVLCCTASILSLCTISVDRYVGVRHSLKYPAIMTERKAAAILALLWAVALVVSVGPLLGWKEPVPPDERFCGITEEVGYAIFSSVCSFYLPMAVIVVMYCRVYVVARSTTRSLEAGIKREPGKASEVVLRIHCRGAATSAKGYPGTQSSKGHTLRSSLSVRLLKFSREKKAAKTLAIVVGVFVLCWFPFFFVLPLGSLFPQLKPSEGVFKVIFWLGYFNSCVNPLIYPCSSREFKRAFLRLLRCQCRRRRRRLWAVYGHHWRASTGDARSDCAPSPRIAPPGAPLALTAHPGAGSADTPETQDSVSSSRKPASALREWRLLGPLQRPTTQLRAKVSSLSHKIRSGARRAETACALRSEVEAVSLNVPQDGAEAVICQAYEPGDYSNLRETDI
Experimental: Isometric contraction assays were performed using Male Wistar rats, aged 2.5-3 months euthanized as described above. The thoracic aorta (tissue enriched in functional α1D adrenergic receptors) was removed, free from adjacent connective and adipose tissues cut in 3 mm segments. […] The aort segments were then subjected to a preload of 20 mN per 60 minutes. After recovery of tissues maintained for 1 hour at rest, it was performed a contraction induced by phenylephrine (PE) 1 μM (α1 adrenergic receptors selective agonist). In this plateau contraction, in order to promote endothelium-dependent relaxation resulting from the activation of the enzyme endothelial nitric oxide synthase (eNOS) and subsequent release of nitric oxide (NO), acetylcholine 1 μM was added. Rings that relaxed at least 80% were considered to have intact endothelium, were used.
Then the preparation was washed and allowed to stand for 1 hour in order to recover the tissue. Then it was performed cumulative curves to phenylephrine (10^−9 to 10^−5 M) in the presence of propranolol 1 μM (β-adrenoceptor blocker receptors) before and after incubation for 1 hour of the LDT's at 10 or 50 nM. In parallel, a temporal control was performed to rule out any artifacts on the measured contraction, where was added only the vehicle (ultrapure water Milli Q®) instead of the substance to be tested. Strictly following the same protocol as the other tanks wherein it was added the LDT's.
The data were scanned in MacLab 8S system connected to the isometric tension transducer Grass FT-03, which recorded the voltage variation in milinewtons (mN) generated throughout the analysis. The digitized data were then analyzed by Chart 3.4/s software program (MacLab, Inc., USA). In the pharmacological screening process, the initial concentration of the used LDT's was 50 nM, which is considered as cut concentration, i.e., substances that have no effect at this concentration would not investigated in this test. […] The ratio of the EC50 value in these two conditions (with and without LDT) matches the third parameter, called “concentration ratio” (or RC).
log(CR−1)=log [B]−log KB (Equation 1)
Where CR=concentration ratio (EC′50/EC50); [B]=‘B’ antagonist concentration; KB=equilibrium dissociation constant of the antagonist ‘B’.
With this in view, the functional tests of contraction in isolated organ model were performed using these tissues. […] Similarly, targeting to rule out any artifacts on the measured contraction, a time control was performed where only the vehicle was added (ultrapure Mili Q® water) in place of the substance to be tested, strictly following the same protocol as the other vats were added to the LDT's (FIG. 1).

[3] = Table 5, Cheng-Prusoff, read-out: α1B Ki
[4] = Table 2, 50 nM (62-69) or 10 nM (70, 39)
[5] = Table 2, 50 nM (62-69) or 10 nM (70, 39), read-out: KB
[6] = Table 2, phenylephrine curve in presence of LTD 50 nM (62-69)

With CCCN1CCN(c2ccccc2OC)CC1 [LDT 63] the “α1B log IC50 (M)” value ([1]; Table 5) was −6.22 ± 0.05 M, the Ki [1, 3] was 511 nM and the CR ([2]; Table 2, LTD 50 nM (62-69)) was 3.1. For the same molecule, the “log KB ± EPM (M)” value [2, 4] was −7.59 ± 0.12b M, the Kb [2, 5] was 31.5 nM and the “log CE50 ± EPM (M) LDT” value [2, 6] was −6.80 ± 0.18 M.
In the case of CCCCN1CCN(c2ccccc2OC)CC1 [LDT 64], the “α1B log IC50 (M)” value ([1]; Table 5) is reported as −6.33 ± 0.16 M, the Ki [1, 3] is reported as 393 nM and the CR ([2]; Table 2, LTD 50 nM (62-69)) is reported as 6.4. For the same molecule, the “log KB ± EPM (M)” value [2, 4] was −7.93 ± 0.13 M, the Kb [2, 5] was 11.7 nM and the “log CE50 ± EPM (M) LDT” value [2, 6] was −6.18 ± 0.08 M.
Work on CCCCCN1CCN(c2ccccc2OC)CC1 [LDT 65] yielded an IC50 [1] of 331 nM, a Ki [1] of 277 nM and a Kb ([2]; KB (nM), Table 2, 50 nM (62-69) or 10 nM (70, 39)) of 8.3 nM. For the same molecule, the CR ([2]; Table 2, LTD 50 nM (62-69)) was 7.0 and the “log CE50 ± EPM (M) LDT” value [2, 6] was −5.89 ± 0.05 M.
For CCCCCCN1CCN(c2ccccc2OC)CC1 [LDT 66], the “α1B log IC50 (M)” value ([1]; Table 5) was −6.51 ± 0.18 M, the Ki [1, 3] was 221 nM and the CR ([2]; Table 2, LTD 50 nM (62-69)) was 32. For the same molecule, the “log KB ± EPM (M)” value [2, 4] was −8.78 ± 0.06a M, the Kb [2, 5] was 1.66 nM and the “log CE50 ± EPM (M) LDT” value [2, 6] was −5.29 ± 0.07 M.
For CCCCCCCN1CCN(c2ccccc2OC)CC1 [LDT 67], the “α1B log IC50 (M)” value ([1]; Table 5) was −6.87 ± 0.10 M, the Ki [1, 3] was 113 nM and the CR ([2]; Table 2, LTD 50 nM (62-69)) was 29.5. For the same molecule, the “log KB ± EPM (M)” value [2, 4] was −8.74 ± 0.08a M, the Kb [2, 5] was 1.82 nM and the “log CE50 ± EPM (M) LDT” value [2, 6] was −5.46 ± 0.08 M.
With CCCCCCCCN1CCN(c2ccccc2OC)CC1 [LDT 68] the “α1B log IC50 (M)” value ([1]; Table 5) was −6.69 ± 0.10 M, the Ki [1, 3] was 173 nM and the CR ([2]; Table 2, LTD 50 nM (62-69)) was 12.8. The “log KB ± EPM (M)” value [2, 4] was −8.36 ± 0.05 M, the Kb [2, 5] was 4.36 nM and the “log CE50 ± EPM (M) LDT” value [2, 6] was −5.81 ± 0.06 M.
CCOc1ccccc1N1CCN(CC)CC1 [LDT 69] was tested, and the “α1B log IC50 (M)” value ([1]; Table 5) was −6.53 ± 0.11 M, the Ki [1, 3] was 185 nM and the CR ([2]; Table 2, LTD 50 nM (62-69)) was 6.9. For the same molecule, the “log KB ± EPM (M)” value [2, 4] was −8.06 ± 0.08 M, the Kb [2, 5] was 8.71 nM and the “log CE50 ± EPM (M) LDT” value [2, 6] was −5.87 ± 0.07 M.
In the case of CCN1CCN(c2ccccc2O)CC1 [LDT 70], the “α1B log IC50 (M)” value ([1]; Table 5) is reported as −6.07 ± 0.10 M, the Ki [1, 3] is reported as 715 nM and the CR ([2]; Table 2, LTD 10 nM (70 and 39)) is reported as 123.6. For the same molecule, the “log KB ± EPM (M)” value [2, 4] was −7.07 ± 0.08a M, the Kb [2, 5] was 85.1 nM and the “log CE50 ± EPM (M) LDT” value ([2]; Table 2, phenylephrine curve in presence of LTD 10 nM (70 and 39)) was −4.86 ± 0.09 M.
CCOc1ccccc1N1CCN(CCc2ccc(OC)c(OC)c2)CC1 [LDT 245] showed a Kb ([2]; KB (nM), Table 1, test substance at 50 nM (a), 10 nM (b) or 2 nM (c)) of 1.16 nM and a Kb ([2]; log KB ± EPM (M), Table 1, test substance at 50 nM (a), 10 nM (b) or 2 nM (c)) of 1.17 nM.
